Measurements from patent US20010047016A1, “Method for treating depression” (priority 2000, published 2001).

Columns and labels:
C57BL/6J mice = assay: tail suspension test in C57BL/6J mice; format: in vivo
Protocol: The tail suspension test is a variant of the “behavioral despair” forced swimming test in which immobility is induced by suspending an animal by the tail (Steru et al., 1985). […] C57BL/6 mice ([…] 21-25g) were housed, ten per cage, in light controlled chambers (12 hr. light/12 hr. dark cycle-lights on at 08.00 hr., off at 20.00 hr.) with free access to food and water. Each animal was tested in a chamber made out of white non-transparent plastics. The C57BL/6J mice are suitable animals for such a study since no enzymes of melatonin biosynthesis have been found in the pineal glands of this strain of mice (Ebihara et al., 1986). Therefore, the observed effects could not be attributed to melatonin. The chamber was 17 cm W×25 cm H×15 cm D with a hook (4 cm) attached to the center of the ceiling. There was no front wall to allow for the observation of the mouse behavior. The mouse was hung on a hook by an adhesive tape placed 15 mm from the extremity of its tail. The animal was positioned with its stomach towards the investigator to assure the observation of the total immobility. The distance between the floor of the chamber and the nose of the animal was 10 cm. Immobility was scored as a sum of the time periods during which the animal hung passively and motionless for at least 2 sec. The total period of observation was 6 min. Experiments were conducted between 10.00 hr. and 14.00 hr. in a quiet room. The source of the light (50 W fluorescent bulb) was positioned 2 m above the experimental chamber. Baseline, control experiments were conducted several days before the actual experiments. Only those animals whose cumulative duration of immobility during the 6 min. observation was no less than 100 sec. were selected for further experiments. Three animals were tested simultaneously. Each experimental group was composed of at least nine animals. […] Nifedipine was injected in a dose (5 mg/kg, i.p.) which, by itself, has no effect on the duration of immobility ([…] and Oxenkrug, 1998). […] Results were expressed as mean±S.D. (sec.) and statistically treated by ANOVA and Student t-test.

[1] = biological target: T1, MT-3 melatonin sites of hamster brain (Mesocricetus auratus, UniProt A0ABM2YAB8); conditions: cited from earlier work
T1 construct: MT-3 melatonin sites of hamster brain; host or cells: hamster brain
T1 sequence (A0ABM2YAB8 1-231): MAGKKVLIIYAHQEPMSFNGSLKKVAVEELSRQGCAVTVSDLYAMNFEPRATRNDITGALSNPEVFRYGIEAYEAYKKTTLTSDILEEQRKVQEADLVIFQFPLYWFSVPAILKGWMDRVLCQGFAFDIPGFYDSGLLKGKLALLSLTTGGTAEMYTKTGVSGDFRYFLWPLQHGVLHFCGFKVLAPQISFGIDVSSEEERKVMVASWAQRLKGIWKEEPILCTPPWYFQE

[2] = test system: other melatonin receptors; conditions: cited from earlier work
mouse = mouse tail suspension test; cited from earlier work

With `COC(=O)Nc1ccc2[nH]cc(CCNC(C)=O)c2c1` [5-MCA-NAT, 5-methoxy-carbonylamino-N-acetyltryptamine] the duration of immobility (C57BL/6J mice; 5-MCA-NAT 10 mg/kg i.p., 30 min before testing, 6 min observation) was “did not affect the duration of immobility”, the duration of immobility (C57BL/6J mice; 5-MCA-NAT 25 mg/kg i.p., 30 min before testing, 6 min observation) was “decreased the duration of immobility” and the duration of immobility (C57BL/6J mice; 5-MCA-NAT 50 mg/kg i.p., 30 min before testing, 6 min observation) was “decreased the duration of immobility”. For the same compound, the duration of immobility (C57BL/6J mice; combination: 5-MCA-NAT 10 mg/kg i.p. with nifedipine 5 mg/kg i.p. injected 15 min after) was “decreased the duration of immobility”, the “affinity for MT-3 melatonin sites” value [1] was “high affinity” and the “affinity or efficacy for other melatonin receptors” value [2] was “low affinity or efficacy”.
For `COc1ccc2[nH]cc(CCNC(C)=O)c2c1` [Melatonin, N-acetyl-5-methoxytryptamine], the antidepressant-like activity (mouse) is listed as “antidepressant-like activity”.
With `COc1cc2nc(N3CCN(C(=O)c4ccco4)CC3)nc(N)c2cc1OC` [Prazocin, reference compound] the duration of immobility (C57BL/6J mice; prazocin 0.5 mg/kg alone) was “did not affect the duration of immobility” and the “effect on decrease of immobility induced by 5-MCA-NAT” value (C57BL/6J mice; prazocin 0.5 mg/kg injected 15 min before 5-MCA-NAT 50 mg/kg) was “prevented decrease of immobility”.
